One data set has as its target T1, thrombin (Homo sapiens, UniProt P00734).
T1 construct: Thrombin (factor IIa) was purchased from Haematologic Technologies; purchased Haematologic Technologies
Description: substrate cleavage by thrombin in presence of sample. It counts as biochemical. Conditions: substance in sample; substrate methoxycarbonyl-D-cyclohexylalanyl-glycyl-arginine-para-nitroaniline. The method, then: (§1) Substrate cleavage in the presence of test sample is measured for all four test conditions.
(§2) There are any number of substrates for thrombin and factor Xa and other proteases as described herein that can be used in the methods of this invention. In some embodiments, the substrate is a chromogenic substrate, which can be a para-nitroanalide synthetic substrate. Non-limiting examples of a chromogenic substrate of this invention include tosyl-glycyl-prolyl-arginine para-nitroanilide, H-D-cyclohexylglycyl-alanyl-arginine para-nitroanilide, H-beta-alanyl-glycyl-arginine para-nitroanilide, H-D-cyclohexylalanyl-alanyl-arginine para-nitroanilide, H-D-phenylalanyl-pipecolyl-arginine para-nitroanilide, H-D-(carbobenzoyl)lysyl-prolyl-arginine para-nitroanilide, H-beta-alanyl-glycyl-arginine 7-amino-4-methylcoumarin, H-D-cyclohexylglycyl-alanyl-arginine 7-amino-4-methylcoumarin, H-D-(carbobenzoyl)lysyl-prolyl-arginine 7-amino-4-methylcoumarin, methoxycarbonyl-D-cyclohexylalanyl-glycyl-arginine para-nitroanilide, methoxycarbonyl-D-cyclohexylglycyl-glycyl-arginine para-nitroanilide, benzoyloxycarbonyl-D-arginyl-glycyl-arginine para-nitroanilide, benzoyl-isoleucyl-glutamyl-glycyl-arginine para-nitroanilide, methylsulfonyl-D-cyclohexylalanyl-glycyl-arginine 7-amino-4-methylcoumarin, and methoxycarbonyl-D-cyclohexylalanyl-glycyl-arginine 7-amino-4-methylcoumarin.
(§3) Thrombin (factor IIa) was purchased from Haematologic Technologies. Factor Xa was purchased from Enzyme Research Labs.

The target of a further data set is T2, a2M-thrombin (a2M-IIa) (Homo sapiens, UniProt P00734).
T2 construct: Thrombin (factor IIa) was purchased from Haematologic Technologies; host or cells: no expression host: complex formed in vitro from purchased thrombin and a2M purified from human plasma, then purified on Q-Sepharose
The data set can be described thus: substrate cleavage by a2M-IIa (thrombin caged in alpha-2-macroglobulin). It counts as biochemical. Conditions: for cleavage of the substrate, (b) a2M-thrombin (a2M-IIa): substance in sample, substrate methoxycarbonyl-D-cyclohexylalanyl-glycyl-arginine-para-nitroaniline. The method, then: as §1, §2
(§4) 0.5 mM of para-nitroanilide synthetic substrate (Pefachrome FXa) was added and the rate of substrate cleavage determined by appearance of yellow color characteristic of the cleaved substrate. Pefachrome FXa is also effective as a substrate for thrombin.
Purified a2M-IIa was eluted from the column with 1M sodium chloride in 20 mM HEPES (pH 7.4).
(§5) The rates of substrate cleavage were converted to concentrations using measured Km and kcat values determined as previously described (Joost et al. “Inhibition of human blood coagulation factor Xa by alpha-2-macroglobulin” Biochemistry 26:5932-5937 (1987) doi: 10.1021/bi00392a053) (FIGS. 1-5).

For a further data set, the target named is T3, factor Xa (Homo sapiens, UniProt P00742).
T3 construct: Factor Xa was purchased from Enzyme Research Labs; purchased Enzyme Research Labs
T3 sequence (P00742 235-488 limits assumed): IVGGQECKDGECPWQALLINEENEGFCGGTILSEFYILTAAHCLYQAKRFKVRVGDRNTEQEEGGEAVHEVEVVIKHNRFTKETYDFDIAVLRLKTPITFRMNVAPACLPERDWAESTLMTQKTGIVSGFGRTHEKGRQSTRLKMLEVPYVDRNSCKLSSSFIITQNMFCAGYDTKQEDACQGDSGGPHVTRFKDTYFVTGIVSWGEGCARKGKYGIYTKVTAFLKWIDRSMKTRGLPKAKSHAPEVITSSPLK
T3 sequence (P00742 41-179 limits assumed): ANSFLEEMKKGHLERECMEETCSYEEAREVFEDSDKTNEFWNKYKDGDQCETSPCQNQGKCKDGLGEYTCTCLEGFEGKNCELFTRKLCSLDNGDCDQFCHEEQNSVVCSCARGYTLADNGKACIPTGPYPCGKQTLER
Description: substrate cleavage by factor Xa in presence of sample. The format is biochemical. The following applies: substance in sample; substrate methoxycarbonyl-D-cyclohexylalanyl-glycyl-arginine-para-nitroaniline. The protocol:
as §1, §2, §3

The target in data set [1] is T4, a2M-Xa (Homo sapiens, UniProt P00742). Description: substrate cleavage by a2M-Xa (factor Xa caged in alpha-2-macroglobulin). The format is biochemical. Also noted: Factor Xa was purchased from Enzyme Research Labs; host or cells: no expression host: complex formed in vitro from purchased factor Xa and a2M purified from human plasma, then purified on heparin Sepharose and Q-Sepharose. Conditions: for cleavage of the substrate, (d) a2M-Xa: substance in sample, substrate methoxycarbonyl-D-cyclohexylalanyl-glycyl-arginine-para-nitroaniline. The method, then:
as §1, §2, §4, §5

The conditions of data set [2]: cited from earlier work; for time to peak plasma concentration: after oral ingestion.
Another data set relates to mice. The data set can be described thus: saphenous vein injury bleeding time in mice. The format is in vivo. The following applies: FIG. 6, normal mouse.
A further data set has as its system a2M-IIa. Description: a2M-IIa substrate cleavage test on plasma of fed mice. The protocol: (§6) Mice were fed Xarelto or Pradaxa or regular chow. Plasma from the animals was analyzed for the presence of dabigatran (active metabolite of Pradaxa) or rivaroxaban (active component of Xarelto). […] 0.5 mM of para-nitroanilide synthetic substrate (Pefachrome FXa) was added and substrate cleavage was determined by appearance of yellow color characteristic of the cleaved substrate.

The conditions of data set [3]: cited from earlier work.
Data set [4] has as its target T4, a2M-Xa. Conditions: substance in plasma of mice fed Pradaxa or Xarelto. The method, then: as §6
The conditions of data set [5]: assumed, based on estimates from Gnoth et al. and Weinz et al.; cited from earlier work.

As to `CC(=O)CC(c1ccccc1)c1c(O)c2ccccc2oc1=O` (stereo not drawn) [Warfarin], the “cleavage of the substrate, (a) Thrombin” value at thrombin is “Cleavage”. The “cleavage of the substrate, (b) a2M-thrombin (a2M-IIa)” value (shortened to “cleavage of the substrate … (a2M-IIa)”) on a2M-thrombin (a2M-IIa) was “Cleavage”. Moreover, at factor Xa, the “cleavage of the substrate, (c) Factor Xa” value is recorded as “Cleavage”. Further, at a2M-Xa [1], the “cleavage of the substrate, (d) a2M-Xa” value is reported as “Cleavage”.

For the compound `COc1ccc(-n2nc(C(N)=O)c3c2C(=O)N(c2ccc(N4CCCCC4=O)cc2)CC3)cc1` [apixaban], in [2] (in vivo), the “eliminated by the kidneys” value is 25% and the metabolism result is given as “metabolized in part by CYP3A4”. For the same compound, in data set [2], the oral bioavailability result is “more than 50%”.

Regarding `[H]/N=C(/N)c1ccc(NCc2nc3cc(C(=O)N(CCC(=O)O)c4ccccn4)ccc3n2C)cc1` [dabigatran], the “time for saphenous vein injury to stop bleeding” value with mice (7 μg/kg dabigatran alone) is reported as “more than 2 minutes”. In addition, the “presence of Dabigatran in plasma” value with a2M-IIa (mice fed Pradaxa, animals 7-12) is on record as “yes”. Moreover, the “presence of Dabigatran in plasma” value in the data set with a2M-IIa (mice fed Xarelto, animals 1-6) is recorded as “no”. In data set [2], the “time to peak plasma concentration” value was “approximately 1.5 hours” and the oral bioavailability is reported as 7.2%. The peak plasma level in data set [2] (healthy human volunteers) was 150 ng/mL. In addition, the route of excretion entry in data set [2] (oral treatment) is recorded as “predominantly excreted in the feces”. For the same compound, the “bound to plasma proteins” value in data set [3] was 35%.

Regarding `O=C(NC[C@H]1CN(c2ccc(N3CCOCC3=O)cc2)C(=O)O1)c1ccc(Cl)s1` [rivaroxaban], the “cleavage of the substrate, (a) Thrombin” value at thrombin is reported as “Cleavage”. The “effect on substrate cleavage by purified a2M-IIa” value at a2M-thrombin (a2M-IIa) (FIG. 1, buffer pH 7.4, 5 minutes incubation, 0.5 mM Pefachrome FXa) is “did not block substrate cleavage”. Further, on a2M-thrombin (a2M-IIa), the “cleavage of the substrate … (a2M-IIa)” value is “Cleavage”. Also, the “cleavage of the substrate, (c) Factor Xa” value at factor Xa is on record as “No”. The “time for saphenous vein injury to stop bleeding” value with mice (160 μg/kg rivaroxaban alone) is around 2 min. The “effect on a2M-IIa cleavage of substrate” value in the data set with a2M-IIa (substance in plasma of mice fed Pradaxa or Xarelto) was “had no effect”. Further, the “effect on a2M-Xa cleavage of substrate” value on a2M-Xa [4] is recorded as “blocked”. In addition, in data set [2], the “time to peak plasma concentration” value is reported as “approximately 3 hours” and the oral bioavailability entry is “more than 80%”. The “food effect on absorption from the gastrointestinal tract” value in data set [2] (in vivo) was “food does not affect absorption”. Further, the “excreted by the kidneys” value in [2] (orally ingested) is reported as “Sixty-six”. Also, in data set [2] (steady state, patients >75 years old), the terminal half-life entry is “up to 12 hours”. Besides, the “blood cell and plasma protein binding” value in data set [3] was 95-98%. Besides, the recovery in data set [5] is reported as 1.6%. Also, the “effect on substrate cleavage by purified a2M-Xa” value on a2M-Xa [1] (FIG. 2, buffer pH 7.4, 5 minutes incubation, 0.5 mM Pefachrome FXa) was “blocked substrate cleavage”. Further, at a2M-Xa [1], the “cleavage of the substrate, (d) a2M-Xa” value is on record as “No”.

heparin: the “cleavage of the substrate, (a) Thrombin” value at thrombin is on record as “No”. Besides, the “cleavage of the substrate … (a2M-IIa)” value at a2M-thrombin (a2M-IIa) was “Cleavage”. Also, the “cleavage of the substrate, (c) Factor Xa” value at factor Xa was “No”. For the same compound, on a2M-Xa [1], the “cleavage of the substrate, (d) a2M-Xa” value was “Cleavage”.

With low molecular weight heparin, the “cleavage of the substrate, (a) Thrombin” value at thrombin is on record as “Cleavage”. On a2M-thrombin (a2M-IIa), the “cleavage of the substrate … (a2M-IIa)” value is recorded as “Cleavage”. For the same compound, at factor Xa, the “cleavage of the substrate, (c) Factor Xa” value is reported as “No”. Further, the “cleavage of the substrate, (d) a2M-Xa” value at a2M-Xa [1] is recorded as “Cleavage”.

The values are drawn from patent publication US9989532B2, “Methods and compositions for detecting coagulation inhibitors” (The University of North Carolina at Chapel Hill, priority 2013, dated 2018).
